This passage reports Ki results from article PMC7534311, “Sulphonamide inhibition profile of Staphylococcus aureus β-carbonic anhydrase” (Journal of Enzyme Inhibition and Medicinal Chemistry, 2020).

One may read the Ki as a measure of affinity in units of concentration, obtained from inhibition or displacement.

The target of the first experiment is T1, SauBCA (β-carbonic anhydrase from Staphylococcus aureus) (Staphylococcus aureus, UniProt A0AAJ4SIE8).
T1 sequence (A0AAJ4SIE8 1-189): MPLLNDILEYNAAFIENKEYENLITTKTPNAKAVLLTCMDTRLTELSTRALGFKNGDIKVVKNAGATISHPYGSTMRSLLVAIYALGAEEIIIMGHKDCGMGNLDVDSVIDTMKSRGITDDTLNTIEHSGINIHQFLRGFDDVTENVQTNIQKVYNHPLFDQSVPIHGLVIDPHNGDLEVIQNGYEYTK
Description: Stopped-flow CO2 hydration inhibition assay, SauBCA. Type of experiment: biochemical. The settings on record: Ki SauBCA, recombinant SauBCA, stopped-flow CO2 hydration, mean from three assays, errors ±5–10%. As to the method: An Applied Photophysics stopped-flow instrument was used for assaying CA-catalysed CO2 hydration activity. […] Six traces of the initial 5 − 10% of the reaction were used to determine the initial velocity. The uncatalysed rates were determined in the same manner and subtracted from the total observed rates. A stock solution of inhibitor (0.1 mM) was prepared in distilled-deionized water, and dilutions of up to 0.01 nM were prepared thereafter with distilled-deionized water. Inhibitor (I) and enzyme (E) solutions were preincubated together for 15 min at RT prior to the assay to allow formation of the E − I complex. Inhibition constants were obtained by using the Cheng-Prusoff equation and nonlinear least squares methods (with PRISM 3) and are presented as the means from at least three different determinations. Kinetic constants were obtained using Lineweaver-Burke plots as reported earlier.
On to `Nc1ccc(S(N)(=O)=O)cc1` [compound 2], for which the Ki is 409 nM.

The same experiment, now with this note: read-out: Ki SauBCA.
Take `Nc1nccc(Nc2ccc(S(N)(=O)=O)cc2)n1` [compound 19]: the inhibitory constant (Ki) worked out at 909 nM.

Consider `CC1(C)O[C@@H]2[C@@H](CO[C@@]3(COS(N)(=O)=O)OC(C)(C)O[C@@H]23)O1` [TPM], for which the Ki was found to be 466 nM.

In the case of `Cc1onc(-c2ccccc2)c1-c1ccc(S(N)(=O)=O)cc1` [VLX], the Ki was determined as 509 nM.

In the case of `NS(=O)(=O)Cc1noc2ccccc12` [ZNS, zonisamide], the Ki worked out at 4550 nM.

For `CC(=O)/N=c1/sc(S(N)(=O)=O)nn1C` [MZA, methazolamide], the inhibitory constant (Ki) turned out to be 863 nM.

With `CCN[C@H]1CN(CCCOC)S(=O)(=O)c2sc(S(N)(=O)=O)cc21` [BRZ, brinzolamide], the Ki was 815 nM.

Turning to `Cc1ccc(-c2cc(C(F)(F)F)nn2-c2ccc(S(N)(=O)=O)cc2)cc1` [CLX, celecoxib], the Ki came out at 871 nM.

The experiment is the same for the next values; noted with them: recombinant SauBCA, stopped-flow CO2 hydration, mean from three assays, errors ±5–10%; read-out: Ki SauBCA.
Consider `Nc1ccc(S(=O)(=O)Nc2nnc(S(N)(=O)=O)s2)cc1` [compound 20], for which the Ki is 92 nM.

For the compound `Cc1ccc(S(N)(=O)=O)cc1` [compound 4], the inhibitory constant (Ki) came out at 83 nM.

Take `NS(=O)(=O)NCCNc1nonc1C(=NO)Nc1ccc(F)c(Br)c1` [EPA, epacadostat]: the inhibition constant Ki worked out at 538 nM.

For `Nc1ccc(S(N)(=O)=O)cc1Br` [compound 9], the inhibitory constant (Ki) is 75 nM.

For the compound `Nc1ccc(S(=O)(=O)Nc2ccc(S(N)(=O)=O)cc2)cc1` [compound 22], the Ki was 83 nM.

As to `Nc1ccc(S(=O)(=O)NCc2ccc(S(N)(=O)=O)cc2)cc1` [compound 23], the Ki worked out at 92 nM.

With `Nc1ccc(S(=O)(=O)NCCc2ccc(S(N)(=O)=O)cc2)cc1` [compound 24], the Ki is 96 nM.

Take `NS(=O)(=O)c1ccc(CO)cc1` [compound 16]: the Ki worked out at 603 nM.

With `NS(=O)(=O)c1cccc(S(N)(=O)=O)c1` [compound 3], the inhibition constant (Ki) stood at 95 nM.

Consider `Nc1ccc(S(N)(=O)=O)cc1Cl` [compound 8], for which the inhibition constant (Ki) amounted to 95 nM.

With `Nc1nnc(S(N)(=O)=O)s1` [compound 13], the inhibition constant Ki came out at 417 nM.

With `NCc1ccc(S(N)(=O)=O)cc1` [compound 5], the Ki amounted to 193 nM.

As to `NS(=O)(=O)c1cc(Cl)cc(Cl)c1O` [compound 10], the inhibition constant Ki is 202 nM.

As for `NS(=O)(=O)c1ccc(CCNS(=O)(=O)c2ccc([N+](=O)[O-])cc2CO)cc1` [compound 21], the inhibition constant (Ki) was found to be 85 nM.

As to `O=C1NS(=O)(=O)c2ccccc21` [SAC], the inhibition constant Ki turned out to be 667 nM.

Another experiment deals with hCA II.
Assay: not given
The settings on record: human recombinant isozyme, Table 2; cited from earlier work.
With `NS(=O)(=O)NCCNc1nonc1C(=NO)Nc1ccc(F)c(Br)c1` [EPA, epacadostat], the Ki is 917 nM.

In the case of `NC(N)=Nc1nc(CSCCC(N)=NS(N)(=O)=O)cs1` [FAM, famotidine], the inhibitory constant (Ki) was 58 nM.
